Results reported in patent US9321722B2, “Bis-indolic derivatives, their uses in particular as antibacterials” (UNIVERSITE JOSEPH FOURIER, priority 2011, dated 2016).

Tests used:
Assay type in all cases: cell-based
[1] = test system: HCT116 (human colon tumor); assay: In vitro cytotoxicity
Method: (§1) In vitro cytotoxicity was assayed on three cell lines—KB (human mouth carcinoma), MCR5 (human lung fibroblast) and HCT116 (human colon tumor). Results are presented in table III as % of cellular growth inhibition in presence of 10^−5 M and 10^−6 M of the tested bis-indolic derivatives.

[2] = test system: KB (human mouth carcinoma); assay: In vitro cytotoxicity; conditions: KB
Method: as §1

[3] = test system: MRC5 (human lung fibroblast); assay: In vitro cytotoxicity
Method: as §1

[4] = test system: Staphylococcus aureus 1199B (overexpression of the NorA efflux pump); assay: Efflux pump inhibition assay with sub-inhibitory ciprofloxacin; conditions: in the presence of ciprofloxacin 4 mg/L (MIC/4)
Method: The efflux pump inhibition potential of the bis-indolic derivatives was tested using two steps. In a first step, the intrinsic antibacterial activity of the compounds was assayed against the following strains:
The following experimental protocol was used: indolic derivatives (initially solubilised in DMSO at 10 mg/mL) were dispensed in a 96-wells microplate by two fold serial dilutions in Muller-Hinton medium (MH, Bio Rad) using a Biomek 2000 (Beckman) handling robot. 100 μL of the bacterial inoculum (an overnight culture at 37° C. in 5 mL MH diluted 100-fold) was then added in each well. The total volume was 200 μL in each well and the final bacteria concentration 10^6 CFU/mL (CFU: colony forming unit). The highest final indolic derivative concentration was 128 mg/L. Growth was assayed with a microplate reader by monitoring absorption at 620 nm after 1, 2, 5, 7 and 24 h incubation at 37° C. In addition, the plates were read visually after 24 hours incubation. Cultures containing 5 μL DMSO were used as growth controls. In addition, two controls containing a sub-inhibitory or a inhibitory antibiotic concentration for the tested strain were performed. The antibiotics used were ampicillin (0.5 and 32 μg/mL) for E. coli, kanamycin (0.5 and 16 μg/mL) for S. aureus ATCC 25923, ciprofloxacin (4 and 64 mg/L) for S. aureus 1199B, ciprofloxacin (0.5 and 2 mg/L) for S. aureus K2378. All experiments were performed in duplicate.
Efflux pump inhibition assays were then performed against resistant Staphylococcus aureus strains SA 1199B and SA K2378 for bis-indolic derivatives. […] The minimal inhibitory concentration (MIC) of the bis-indolic compound allowing a complete inhibition of the bacterial growth in the presence of ciprofloxacin was determined.

[5] = test system: S. agalactiae (group B) ATCC 12400; assay: MIC microdilution (Table I-1); conditions: Streptococcus agalactiae, ATCC12400, read after 18 hours, read-out: MIC
Method: (§2) The microdilution method recommended by the Clinical and Laboratory Standard Institute [M07-A8, Vol. 29, N^o 2] was used. The activity of indolic compounds was tested against 29 bacterial strains belonging to 17 different species and 12 different genera (Staphylococcus, Streptococcus, Enterococcus, Listeria, Bacillus, Haemophilus, Escherichia, Klebsiella, Enterobacter, Serratia, Pseudomonas, and Acinetobacter). Bacterial inocula were prepared in Mueller Hinton broth (MH2, bioMerieux, Marcy L'Etoile, France), supplemented with 10% sheep blood for fastidious species (i.e., Streptococcus pneumoniae and Haemophilus influenzae). They were dispensed in 96 well microtiter plates (5×10^5 CFU/ml of final inoculum). Indolic compounds were added to the wells as to obtain two-fold serial concentrations (0.50-128 mg/L of final concentrations). Plates were incubated at 37° C. in ambient air, or at 37° C. in 5% CO2 enriched atmosphere for fastidious species. […] Drug-free cultures served as growth controls. Cultures receiving gentamicin, ciprofloxacin or cefotaxime served as positive controls.

[6] = test system: Haemophilus influenzae ATCC 49766; assay: MIC microdilution (Table I-1); conditions: ATCC49766; Haemophilus influenzae ATCC 49766; read after 18 hours; read-out: MIC
Method: as §2

[7] = test system: Enterobacter cloacae ATCC 13047; assay: MIC microdilution (Table I-1); conditions: ATCC13047, read after 18 hours
Method: as §2

[8] = test system: Klebsiella pneumoniae ATCC 35657; assay: MIC microdilution (Table I-1); conditions: ATCC35657, read after 18 hours, read-out: MIC
Method: as §2

[9] = test system: Serratia marcescens CIP 103551; assay: MIC microdilution (Table I-1); conditions: CIP103551, read after 18 hours
Method: as §2

E. faecalis ATCC 29212 = assay: MIC microdilution (Table I-1); conditions: Enterococcus faecalis, ATCC29212, read after 18 hours, read-out: MIC
Method: as §2

S. mitis CIP 103335 = assay: MIC microdilution (Table I-1); conditions: Streptococcus mitis, CIP103335, read after 18 hours, read-out: MIC
Method: as §2

S. pneumoniae ATCC 49619 = assay: MIC microdilution (Table I-1); conditions: Streptococcus pneumoniae, ATCC49619, read after 18 hours
Method: as §2

E. faecium CIP 54.32 = assay: MIC microdilution (Table I-1); conditions: Enterococcus faecium, CIP54, read after 18 hours, read-out: MIC
Method: as §2

[10] = test system: S. pyogenes (group A) CIP 104226; assay: MIC microdilution (Table I-1); conditions: Streptococcus pyogenes, CIP104226, read after 18 hours, read-out: MIC
Method: as §2

[11] = test system: Bacillus subtilis CIP 5262; assay: MIC microdilution (Table I-1); conditions: CIP5262, read after 18 hours, read-out: MIC
Method: as §2

[12] = test system: Escherichia coli ATCC 25922; assay: MIC microdilution (Table I-1); conditions: ATCC25922, read after 18 hours
Method: as §2

S. aureus ATCC 25923 = assay: MIC microdilution (Table I-1); conditions: Staphylococcus aureus, ATCC25923, read after 18 hours
Method: as §2

[13] = test system: Pseudomonas aeruginosa CIP 5933; assay: MIC microdilution (Table I-1); conditions: CIP5933, read after 18 hours
Method: as §2

[14] = test system: Acinetobacter baumanii ATCC 19606; assay: MIC microdilution (Table I-1); conditions: Acinetobacter baumannii, ATCC19606, read after 18 hours
Method: as §2

[15] = test system: Listeria innocua CIP 80.11; assay: MIC microdilution (Table I-1); conditions: CIP80, read after 18 hours, read-out: MIC
Method: as §2

CC(C)(C)OC(=O)N1CCN(C(=O)C(=O)c2c[nH]c3ccc(Br)cc23)C(c2c[nH]c3ccc(Br)cc23)C1 (centres unmarked) [Compound 6f, tert-Butyl 3-(5-bromo-1H-indol-3-yl)-4-(2-(5-bromo-1H-indol-3-yl)-2-oxoacetyl) piperazine-1-carboxylate]
81 ± 2%: inhibition at 10 µM ([1]; HCT-116, HCT116, 10^−5 M, read-out: % of cellular growth inhibition)
> 128 µg/mL: MIC [5] | MIC [6] | MIC [7] | MIC [8] | MIC [9] | MIC (E. faecalis ATCC 29212) | MIC (S. mitis CIP 103335) | MIC (S. pneumoniae ATCC 49619) | MIC (E. faecium CIP 54.32) | MIC [10] | MIC [11] | MIC [12] | MIC (S. aureus ATCC 25923) | MIC [13] | MIC [14] | MIC [15]
39 ± 4%: inhibition at 10 µM ([3]; MRC5, 10^−5 M, read-out: % of cellular growth inhibition)
92 ± 3%: inhibition at 10 µM ([2]; 10^−5 M, read-out: % of cellular growth inhibition)
0%: inhibition at 1 µM ([1]; HCT-116, HCT116, 10^−6 M, read-out: % of cellular growth inhibition (converted)) | inhibition at 1 µM ([2]; 10^−6 M, read-out: % of cellular growth inhibition (converted)) | inhibition at 1 µM ([3]; MRC5, 10^−6 M, read-out: % of cellular growth inhibition (converted))
<0.25 (4) mg/L: CMI, mg/L (Ciprofloxacin concentration, mg/L) [4]
